{
  "source": "patent US8329227B2",
  "about": "“Compositions for improving mental performance” (Factor Nutrition Labs, LLC, priority 2001, dated 2012)",
  "origin": "cited, not measured here",
  "key": {"[1]": {"conditions": "PS supplementation"}, "[2]": {"conditions": "200 micrograms in four divided doses, fifty patients; placebo thirty-six percent"}, "[3]": {"conditions": "high or low dose versus placebo, 203 patients"}, "[4]": {"conditions": "healthy volunteers aged 25-40"}},
  "data": [
    {"compound": "phosphatidyl serine [PS]", "values": [
      {"measurement": "improvement in learning ability and memory tasks", "setting": "[1]", "result": 15, "unit": "%"}
    ]},
    {"compound": "C/C=C1\\[C@H]2C=C(C)C[C@]1(N)c1ccc(=O)[nH]c1C2", "note": "[huperzine A, Huperzine A]", "values": [
      {"measurement": "people with improvements in memory, cognitive function and behavior", "setting": "[2]", "result": "Fifty-eight"}
    ]},
    {"compound": "CCOC(=O)C1=C[C@]2(CC)CCCN3CCc4c(n1c1ccccc41)[C@@H]32", "note": "[vinpocetine]", "values": [
      {"measurement": "cognitive performance and overall quality of life", "setting": "[3]", "result": "Significantly greater improvements"},
      {"measurement": "memory (Steinberg Memory Test)", "setting": "[4]", "result": "significant memory improvement"},
      {"measurement": "patients with reduced frequency or complete elimination of epileptic seizures", "setting": "epileptic patients", "result": "twenty of the thirty-one"},
      {"measurement": "tolerability in clinical studies", "setting": "human, in vivo", "result": "well tolerated"}
    ]}
  ]
}
